Data as given in patent US11337983B2, “Dactinomycin compositions and methods for the treatment of acute myeloid leukemia” (priority 2015, dated 2022).
“Also recorded” adds a separate entry of the source. *1 amine or outer side, *2 acyl side, *3 side chain or, on linkers, in order; H or OH if unused. Where a SMILES comes first, the peptide text is derived from it. Bridges are numbered along the chain shown (N, C = ends). Roman numbers before positions name the chains, in order. [ ]: non-standard residue; d: D form. Actinocin(9to1) = Cc1c2oc3c(C)ccc(C(=O)[*:1])c3nc-2c(C(=O)[*:2])c(N)c1=O; NMeV = CN[CH](C(=O)O)C(C)C; Sar = CNCC(=O)O

Assays:
Format in all cases: in vivo, human
[1] = system: NPM1-mutated AML without FLT3 internal tandem duplication mutations; assay: Dactinomycin single-agent treatment of a patient with NPM1-mutated AML (response)
Experimental: (§1) A patient with NPM1-mutated AML without FLT3 internal tandem duplication mutations was treated with dactinomycin. Because dactinomycin lacks cardiotoxicity, a patient was selected for whom intensive chemotherapy was not appropriate owing to a low left ventricular ejection fraction (35%). […] Therefore, with the patient's consent, dactinomycin was administered as an off-label single agent (approved by the institutional review board at Perugia Hospital), at a dose of 12.5 μg per kilogram of body weight per day for 5 consecutive days, as recommended for low-risk gestational trophoblastic tumors. […] Four more cycles were administered for a total of six cycles, at intervals of 3 to 4 weeks.
The progressive decrease in NPM1 mutant transcripts (until the achievement of negativity for minimal residual disease) is reminiscent of dactinomycin-induced normalization of serum levels of human chorionic gonadotropin in patients with gestational trophoblastic tumors.

[2] = system: refractory or relapsed NPM1-mutated AML; assay: Dactinomycin treatment of six additional patients with refractory or relapsed NPM1-mutated AML; conditions: 15.0 μg per kilogram per day for 5 consecutive days, cycles
Experimental: Six additional patients with refractory or relapsed NPM1-mutated AML were treated with cycles of dactinomycin at a dose of 15.0 μg per kilogram per day for 5 consecutive days.

[3] = Adverse events and hematologic toxic effects during dactinomycin treatment of the patient
Experimental: as §1
The number of days with a hemoglobin level of less than 8 g per deciliter, severe thrombocytopenia (a platelet count of <20,000 per cubic millimeter), and severe neutropenia (a neutrophil count of <500 per cubic millimeter) are reported for cycles 1 through 6. A total of 8 units of red cells and 4 units of platelets were transfused during cycle 1, and 4 units of red cells and 1 unit of platelets were transfused during cycle 2.

[4] = after two cycles of dactinomycin

In the case of Nc1ncn([C@@H]2O[C@H](CO)[C@@H](O)[C@H]2O)c(=O)n1 [azacitidine], the “Course of leukemia after prior therapy” value ([1]; initial single cycle of azacitidine, before dactinomycin) is reported as “Leukemia had progressed”.

For Cc1c2oc3c(C)ccc(C(=O)NC4C(=O)NC(C(C)C)C(=O)N5CCCC5C(=O)N(C)CC(=O)N(C)C(C(C)C)C(=O)OC4C)c3nc-2c(C(=O)NC2C(=O)NC(C(C)C)C(=O)N3CCCC3C(=O)N(C)CC(=O)N(C)C(C(C)C)C(=O)OC2C)c(N)c1=O (stereo not shown) [dactinomycin, 2-amino-N,N′-bis(hexadecahydro-2,5,9-trimethyl-6,13-bis(1-methylethyl)-1,4,7,11,14-pentaoxo-1H-pyrrolo(2,1-I)(1,4,7,10,13)oxatetra-azacyclohexadecin-10-yl)-4,6-dimethyl-3-oxo-3H-phenoxazine-1,9-dicarboxamide] (I: TVP[Sar][NMeV] / II: TVP[Sar][NMeV]; ester I:1-I:C, II:1-II:C; linker I:N-II:N via Actinocin(9to1); configuration not given here), the “Hematologic complete remission (patients of six treated)” value [2] was “achieved in two patients”, the “Morphologic and immunohistochemical (hematologic) complete remission” value ([1]; 12.5 μg per kilogram per day for 5 consecutive days per cycle, patient) was “hematologic complete remission; also recorded: complete remission was achieved after two cycles of therapy” and the “Immunostaining with anti-NPM1 monoclonal antibody of bone marrow cells” value [1, 4] was “nucleus-restricted positivity for NPM1”. For the same compound, the “Leukemic blasts in bone marrow aspirate (MGG staining)” value [1, 4] was “less than 5%”, the “Molecular complete remission / negativity for minimal residual disease (quantitative RT-PCR for mutant copies of NPM1)” value ([1]; bone marrow samples, 12.5 μg/kg/day x 5 days per cycle) was “Negativity for minimal residual disease was achieved after the fourth cycle; also recorded: molecular complete remission after the fourth cycle” and the “Mutant copies of NPM1 in bone marrow samples (RT-PCR, copies per 100 copies of Abl)” value ([1]; during dactinomycin treatment) was “progressive reduction in copies”. For the same compound, the “Duration of morphologic and molecular complete remission” value ([1]; six cycles at intervals of 3 to 4 weeks) was 14 months, the “Need for red-cell or platelet transfusions” value ([3]; after cycle 2 (cycles 3 through 6)) was “no need for blood transfusions; also recorded: No red-cell or platelet transfusions were necessary” and the “Number of days with Hb <8 g/dl” value ([3]; cycle 1) was 3 days. For the same compound, the “Number of days with PLT <20000/mm^3” value ([3]; cycle 1) was 13 days, the “Number of days with PMN <500/mm^3” value ([3]; cycle 1) was 26 days and the Platelets transfused ([3]; cycle 1) was 4 units. The Red cells transfused ([3]; cycle 1) was 8 units, the “Number of days with Hb <8 g/dl” value ([3]; cycle 2) was 3 days and the “Number of days with PLT <20000/mm^3” value ([3]; cycle 2) was 2 days. For the same compound, the “Number of days with PMN <500/mm^3” value ([3]; cycle 2) was 6 days, the Platelets transfused ([3]; cycle 2) was 1 unit and the Red cells transfused ([3]; cycle 2) was 4 units. The “Number of days with Hb <8 g/dl” value ([3]; cycle 3) was 0 days, the “Number of days with PLT <20000/mm^3” value ([3]; cycle 3) was 0 days and the “Number of days with PMN <500/mm^3” value ([3]; cycle 3) was 4 days. For the same compound, the “Number of days with Hb <8 g/dl” value ([3]; cycle 4) was 0 days, the “Number of days with PLT <20000/mm^3” value ([3]; cycle 4) was 0 days and the “Number of days with PMN <500/mm^3” value ([3]; cycle 4) was 4 days. The “Number of days with Hb <8 g/dl” value ([3]; cycle 5) was 0 days, the “Number of days with PLT <20000/mm^3” value ([3]; cycle 5) was 0 days and the “Number of days with PMN <500/mm^3” value ([3]; cycle 5) was 4 days. The “Number of days with Hb <8 g/dl” value ([3]; cycle 6) was 0 days, the “Number of days with PLT <20000/mm^3” value ([3]; cycle 6) was 0 days and the “Number of days with PMN <500/mm^3” value ([3]; cycle 6) was 3 days. For the same compound, the Skin adverse event ([3]; during cycle 2) was “superficial skin erosions”, the “Febrile neutropenia and thrombocytopenia (adverse event grade)” value ([3]; during cycles 1 and 2) was 4 grade and the “Oral mucositis (adverse event grade)” value ([3]; during cycles 1 through 3) was 2 grade.
